Measured values as given in patent US6323203A, “Composition and method for treating diabetes” (Beyer; Camille F., priority 2000, dated 2001).
Read-outs that look alike come from different tables or passages of the source.

How the values were obtained:
[1] = in vivo; cited from earlier work
[2] = Single-blind, three-phase crossover study of single oral doses: blood analyses of metabolic, hormonal and electrolyte parameters in 8 normal male subjects; type: in vivo, human; settings: for Free fatty acids, mean / Angiotensin I, mean / Renin, mean / C-peptide, mean / Potassium, mean / Uric acid, mean / Aldosterone, mean / Insulin, mean / Urea, mean / VLDL Cholesterol, mean / Norepinephrine, mean / HDL Cholesterol, mean / Glucose, mean / Triglycerides, mean / LDL Cholesterol, mean / Total cholesterol, mean / Fibrinogen, mean: 8 normal subjects; for Free fatty acids, mean: 0 h: PZG 0.47, PZA 0.51; for Angiotensin I, mean: 0 h: PZG 0.84, PZA 0.66; for Renin, mean: 0 h: PZG 1.0, PZA 1.5; for C-peptide, mean: 0 h: PZG 1.1, PZA 1.2; for Potassium, mean: 0 h: PZG 4.2, PZA 4.0; for Uric acid, mean: 0 h: PZG 6.0, PZA 5.6; for Aldosterone, mean: 0 h: PZG 8.6, PZA 13.6; for Insulin, mean: 0 h: PZG 8.8, PZA 5.4; for Urea, mean: 0 h: PZG 17, PZA 17; for VLDL Cholesterol, mean: 0 h: PZG 20, PZA 17; for Norepinephrine, mean: 0 h: PZG 37, PZA 75; for HDL Cholesterol, mean: 0 h: PZG 41, PZA 46; for Glucose, mean: 0 h: PZG 87, PZA 84; for Triglycerides, mean: 0 h: PZG 101, PZA 86; for LDL Cholesterol, mean: 0 h: PZG 107, PZA 104; for Total cholesterol, mean: 0 h: PZG 168, PZA 167; for Fibrinogen, mean: 0 h: PZG 266, PZA 293
Method: A three-phase study, where single oral doses of placebo, followed in one week by 900 mg of pyrazinoylguanidine (PZG), followed in three weeks by 300 mg of pyrazinoic acid (PZA), involving normal male subjects, was carried out to compare and contrast metabolic effects of single doses of PZG and PZA. A purpose of the study was to determine whether the metalbolic effects observed after 3 and also 21 days of PZG administration in patients with renal disease or with diabetes also occurred after a single oral dose. […]
(§1) Eight male nonsmoking subjects aged 24-32 participated. They were normal by history, physical exam and routine laboratory analysis of blood and urine.
(§2) This was a single-blind, three-phase crossover study beginning after a 10-hour fast at 8 a.m., designated time 0 (control), when the first venipuncture occurred. In phase I, three capsules of lactose were given orally, followed by venipunctures 2 and 4 h later. In phase II, 1 week later, after a control blood specimen drawn at 8 a.m., PZG (900 mg) was given orally and blood specimens taken 2 and 4 h thereafter. In phase III, 3 weeks later, after a control blood specimen drawn at 8 a.m., PZA (300 mg) was given orally and blood specimens taken 2 and 4 h later.
(§3) Each phase consisted of taking three capsules, each containing 300 mg. In phase I, all three capsules were of lactose; in phase II, all three were PZG; and in phase III, two capsules were lactose and one PZA. All capsules appeared indistinguishable and were given to each subject who swallowed them with water in the presence of an investigator.
(§4) Once obtained, blood specimens were immediately spun. Refrigerated serum or plasma was analyzed within 24 h for glucose, insulin, electrolytes, blood urea nitrogen, creatinine, liver function tests, triglycerides, total cholesterol, high-density lipoprotein (HDL) cholesterol, low-density lipoprotein (LDL) cholesterol, very-low-density lipoprotein (VLDL) cholesterol, free fatty acids, and fibrinogen.
Repeated measures of analysis of variance were used to compare each subject's placebo, PZG and PZA phase. Two-tailed Student t-tests were performed between groups. All results are reported as means ±SD. Statistical significance was considered when p<0.05. The results are illustrated in Tables 1-4.

[3] = Serum concentration of PZG or PZA after single oral dose in the crossover study; type: in vivo; settings: human, 300 mg
Method: as §1, §2, §3, §4

[4] = system: cutaneous vasomotor reaction of blush area; assay: Cutaneous vasomotor response (and tolerability) after a single oral dose in 8 male volunteers; type: in vivo, human; set-up: key to Cutaneous vasomotor response, Score (0-6), Mean: graded 0 = not observed to 6 = most severe reaction
Method: as §1, §2
(§5) Comparisons of mean serum or plasma concentrations ±SD during placebo, PZG and PZA phases are presented in Table 1 for glucose, insulin, C-peptide, free fatty acids and norepinephrine. Comparisons of mean serum or plasma concentrations ±SD during these three phases are presented in Table 2 for triglycerides, VLDL, LDL, HDL, total cholesterol, fibrinogen and serum PZG and PZA concentrations. Note the close agreement of serum PZG and PZA concentrations at 2 h and also at 4 h after their administration. Table 3 compares mean serum or plasma concentrations ±SD of renin, angiotensin I, adlosterone, potassium, urea and uric acid during the three phases of the study. […] In an earlier pilot experiment to determine serum PZA concentrations following different PZA doses, a first subject ([…]) after a single oral dose of 300 mg PZA developed unexpectedly a typical cutaneous vasomotor reaction of their blush area which included flushed, warm skin of face, neck and shoulders with a mild rash for about 90 min. […] They described the reaction variously as warm redness or flushed head and neck, rash and itching (Table 4). These reactions, which were graded from 6 (most severe) to 0 (not observed), lasted from 30 min in 3 subjects to 4 h in 1 subject. […] No significant correlation occurred between score of reaction (effect+duration) and PZA peak blood concentration among the subjects (r=0.281) (Table 4).
(§6) ^1 Score = warm + redness (flush) + rash + itching + duration. Duration
(§7) as 0.5 h, 1, 2, 4 h (reaction and duration as noted).

[5] = system: cutaneous vasomotor reaction of blush area; assay: Exploratory (pilot) study: serum concentrations and cutaneous vasomotor reaction after different oral PZA doses in two subjects; type: in vivo, human
Method: as §5, §6, §7

[6] = as above; type: in vivo, human; settings: human, serum, po, exploratory study; for concentration at 1 h: read-out: Serum PZG, 1 h; for concentration at 2 h: read-out: Serum PZG, 2 h
Method: as §5, §6, §7

[7] = 2 h after single oral dose (PZG 900 mg, PZA 300 mg)
[8] = 4 h after single oral dose (PZG 900 mg, PZA 300 mg)

For `O=C(O)c1cnccn1` [PZA, pyrazinoic acid], the “effect on serum triglycerides” value [1] is given as “lower serum triglycerides”, the “effect on uric acid blood concentrations” value [1] is given as “increase uric acid blood concentrations” and the “effect on mean values for serum glucose, insulin, C-peptide, triglycerides and free fatty acids” value ([2]; 0, 2 and 4 hours after administration) is given as “decreased”. The “Free fatty acids, mean” value [2, 7] was 0.10 meq/l, the “Angiotensin I, mean” value [2, 7] was 0.75 ng/ml per h and the “Renin, mean” value [2, 7] was 1.7 ng/ml per h. The “C-peptide, mean” value [2, 7] was 1.0 ng/mL, the “Potassium, mean” value [2, 7] was 4.6 meg/l and the “Uric acid, mean” value [2, 7] was 6.3 mg/dL. For the same molecule, the “Aldosterone, mean” value [2, 7] was 12.3 ng/dL, the “Insulin, mean” value [2, 7] was 3.7 μlU/ml and the “Urea, mean” value [2, 7] was 17 mg/dL. The “VLDL Cholesterol, mean” value [2, 7] was 15 mg/dL, the “Norepinephrine, mean” value [2, 7] was 61 pg/mL and the “HDL Cholesterol, mean” value [2, 7] was 41 mg/dL. The “Glucose, mean” value [2, 7] was 85 mg/dL, the “Triglycerides, mean” value [2, 7] was 77 mg/dL and the “LDL Cholesterol, mean” value [2, 7] was 126 mg/dL. The “Total cholesterol, mean” value [2, 7] was 179 mg/dL, the “Fibrinogen, mean” value [2, 7] was 278 mg/dL and the “Free fatty acids, mean” value [2, 8] was 0.09 meq/l. For the same molecule, the “Angiotensin I, mean” value [2, 8] was 0.73 ng/ml per h, the “Renin, mean” value [2, 8] was 2.1 ng/ml per h and the “C-peptide, mean” value [2, 8] was 0.7 ng/mL. The “Potassium, mean” value [2, 8] was 4.3 meg/l, the “Uric acid, mean” value [2, 8] was 6.2 mg/dL and the “Aldosterone, mean” value [2, 8] was 12.5 ng/dL. The “Insulin, mean” value [2, 8] was 3.7 μlU/ml, the “Urea, mean” value [2, 8] was 16 mg/dL and the “VLDL Cholesterol, mean” value [2, 8] was 14 mg/dL. The “Norepinephrine, mean” value [2, 8] was 67 pg/mL, the “HDL Cholesterol, mean” value [2, 8] was 45 mg/dL and the “Glucose, mean” value [2, 8] was 80 mg/dL. For the same molecule, the “Triglycerides, mean” value [2, 8] was 69 mg/dL, the “LDL Cholesterol, mean” value [2, 8] was 109 mg/dL and the “Total cholesterol, mean” value [2, 8] was 168 mg/dL. For the same molecule, the “Fibrinogen, mean” value [2, 8] was 278 mg/dL, the “effect on plasma concentrations of nonesterified fatty acids” value ([2]; PZA (Table 1)) was “reduce” and the “effect on insulin, C-peptide, free fatty acids and triglyceride serum concentrations” value ([2]; at equivalent plasma concentrations of PZG and PZA) was “reduced”. For the same molecule, the “effect on LDL, HDL and total cholesterol” value ([2]; single oral dose, within 4 h) was “not altered systematically”, the “effect on potassium blood concentrations” value ([2]; single oral dose, within 4 h) was “not changed” and the “effect on uric acid plasma concentration” value ([2]; single oral dose, within 4 h) was “increased”. For the same molecule, the “effect on very-low-density lipoprotein (VLDL)” value ([2]; single oral dose, within 4 h) was “decreased”, the “effect on plasma norepinephrine” value ([2]; single oral dose, not statistically significant) was “did not elevate” and the concentration at 2 h ([3]; 2 h after single oral dose (PZG 900 mg, PZA 300 mg), 8 normal subjects, read-out: Serum concentration of PZG or PZA, mean) was 5000 ng/mL. The concentration at 4 h ([3]; 4 h after single oral dose (PZG 900 mg, PZA 300 mg), 8 normal subjects) was 3000 ng/mL, the concentration at 2 h ([3]; single 300-mg dose of PZA, individual subjects one, read-out: PZA 2-hour serum conc) was 5600 ng/mL and the concentration at 2 h ([3]; single 300-mg dose of PZA, mean of 8 male volunteers, read-out: PZA 2-hour serum conc, Mean) was 4960 ng/mL. For the same molecule, the “onset of cutaneous reaction relative to peak serum concentration” value ([4]; 300 mg PZA) was “the onset preceded peak serum PZA concentrations”, the “subjects that responded with a cutaneous vasomotor reaction” value ([4]; 300 mg PZA) was 7 of 8 and the “seriousness of cutaneous vasomotor reactions” value ([4]; 300 mg PZA, 8 subjects) was “None of the cutaneous vasomotor reactions was serious enough to interfere with participation in the study”. For the same molecule, the “subjects without cutaneous vasomotor reaction” value ([4]; 300 mg PZA, 8 subjects) was “One subject among the 8 had no reaction”, the “duration of cutaneous vasomotor reaction (longest)” value ([4]; 300 mg PZA, in 1 subject) was 4 h and the “duration of cutaneous vasomotor reaction (shortest)” value ([4]; 300 mg PZA, in 3 subjects) was 30 min. For the same molecule, the “effect on blush area” value ([4]; PZA) was “transiently stimulate”, the “Cutaneous vasomotor response, Score (0-6), Mean” value ([4]; single 300-mg dose of PZA, mean of 8 male volunteers) was 3.25 and the “Cutaneous vasomotor response, Score (0-6), exploratory study” value ([5]; subject two, single oral dose 600 mg) was 0. For the same molecule, the cutaneous vasomotor reaction ([5]; subject two, single oral dose of 600 mg PZA) was “no cutaneous vasomotor reaction”, the “Cutaneous vasomotor response, Score (0-6), exploratory study” value ([5]; subject, single oral dose 300 mg) was 6 and the “duration of cutaneous vasomotor reaction” value ([5]; subject, single oral dose of 300 mg PZA, face, neck and shoulders with mild rash) was “about 90 min”. The half-life ([6]; subject two, 600 mg) was 300 min, the concentration at 1 h ([6]; subject two, 600 mg) was 10200 ng/mL and the concentration at 2 h ([6]; subject two, 600 mg) was 12000 ng/mL. It also gave a half-life ([6]; subject, 300 mg) of 180 min, a concentration at 1 h ([6]; subject, 300 mg) of 6200 ng/mL and a concentration at 2 h ([6]; subject, 300 mg) of 4800 ng/mL.
